Measured values reported in article PMC8571951, “An activity‐based bioprobe differentiates a novel small molecule inhibitor from a LOXL2 antibody and provides renewed promise for anti‐fibrotic therapeutic strategies” (Clinical and Translational Medicine, 2021).

Target: T1, LOXL2 (Homo sapiens, UniProt Q9Y4K0)
T1 sequence (Q9Y4K0 26-774): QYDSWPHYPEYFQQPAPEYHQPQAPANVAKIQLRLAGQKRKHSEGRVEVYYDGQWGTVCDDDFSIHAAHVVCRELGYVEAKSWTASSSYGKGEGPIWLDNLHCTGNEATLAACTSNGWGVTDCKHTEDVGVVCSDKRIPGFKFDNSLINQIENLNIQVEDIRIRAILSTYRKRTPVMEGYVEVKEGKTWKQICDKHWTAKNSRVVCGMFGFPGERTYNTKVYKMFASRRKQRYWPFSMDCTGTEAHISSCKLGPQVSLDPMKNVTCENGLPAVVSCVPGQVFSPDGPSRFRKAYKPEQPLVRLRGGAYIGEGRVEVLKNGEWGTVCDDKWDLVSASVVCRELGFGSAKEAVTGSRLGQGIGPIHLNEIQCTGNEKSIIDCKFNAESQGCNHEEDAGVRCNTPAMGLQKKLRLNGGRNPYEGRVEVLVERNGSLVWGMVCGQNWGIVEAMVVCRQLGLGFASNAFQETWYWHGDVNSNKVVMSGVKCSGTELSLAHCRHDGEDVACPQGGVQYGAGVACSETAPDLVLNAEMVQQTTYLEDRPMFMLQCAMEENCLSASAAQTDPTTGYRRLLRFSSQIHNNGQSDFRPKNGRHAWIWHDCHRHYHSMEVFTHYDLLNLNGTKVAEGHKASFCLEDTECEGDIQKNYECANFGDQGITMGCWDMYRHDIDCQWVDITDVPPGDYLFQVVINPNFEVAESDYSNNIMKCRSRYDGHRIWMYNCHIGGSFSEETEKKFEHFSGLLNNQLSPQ
Assay: Phase 1 study, LOXL2 activity in plasma after single oral dose (PXS-5878/Simoa)
Format: in vivo
Parameters: from tissue; host or cells: human plasma (activity) and human serum (protein concentration) from clinical trial subjects
Settings: for Inhibition of LOXL2 activity: healthy humans
Description: To confirm the therapeutic potential of the anti‐fibrotic PXS‐5338 (Figure S5) in humans, LOXL2 inhibition after oral administration was examined in a phase 1 study. […] This underscored the fast resynthesis of LOXL2 in humans, similar to that seen in rodents, with ca. 80% of enzyme activity returning within 24 h.
FIGURE 3 Inhibition of human lysyl oxidase‐like 2 (LOXL2) enzymatic activity by PXS‐5338 in clinical trials. (A) LOXL2 protein concentration in human serum is fairly constant over 24 h. Protein concentrations normalised to pre‐dose levels are plotted over time in healthy subjects treated with different doses (placebo, 100, 200 and 400 mg) of PXS‐5338. Mean ± SD with n = 6/time point. Phase 1 study with healthy male volunteers, ANZCTR ACTRN12617001444370. Legend of (A) also applies to (B) and (C). (B) Dose‐dependent inhibition of LOXL2 in plasma following a single oral dose of 100, 200 mg or 400 mg PXS‐5338. PXS‐5878/Simoa® platform used to measure the residual activity. Mean ± SD with n = 6/time point. (C) Pharmacokinetic (PK) profile of PXS‐5338 in healthy human males. […] (D) Correlation between LOXL2 protein concentration versus % inhibition. Activity data normalised to pre‐dose value.
The platform consists of an activity-based probe (ABP) for the detection of enzyme activity in conjunction with the Simoa^TM (single molecule array) bead technology to isolate the protein. This platform has enabled accurate measurement of total protein and enzymatic activity of LOXL2 from small volumes of serum, plasma and tissue.
In the immunoassay, paramagnetic capture beads are coated with a LOXL2 capture antibody (AF2639). 100 µL of pre-diluted (4-fold) sample in buffer (0.5% Casein, 0.25% Tween-20 in PBS) is combined in a cuvette with the capture beads (25 µL for protein content at 1.6 x 10^7 beads/mL; 100 µL for enzyme activity at 4 x 10^6 beads/mL). The biotinylated detector agent [either a second anti-LOXL2 antibody (AB213598) for protein content or the ABP (PXS-5878) for enzyme activity) is then added during the same incubation with intermittent shaking at room temperature (35 minutes for protein content or 54 minutes for enzyme activity).
Target molecules present in the sample are captured by the antibody coated beads and bound with the detector agent simultaneously. After incubation, beads are pelleted by magnetic separation, excess sample/buffer and reagents aspirated off and beads resuspended in wash buffer to remove unbound proteins and excess reagents.
Following protein capture and incubation with the detector, a conjugate of streptavidin-β-galactosidase (SβG; 100 µL at 300 - 350 pM) is mixed with the beads and incubated (5 minutes with intermittent shaking at room temperature). SβG binds to the biotinylated detector agent, resulting in enzyme-labelling of captured LOXL2. Following a final wash, the beads are resuspended in a resorufin-β-D-galactopyranoside (RGP) substrate solution and transferred to a Simoa^TM Disc (containing a microarray to separate beads into individual microwells). After settling into the microarray via gravity, beads are then sealed in microwells with oil. If LOXL2 is captured and labelled on the bead, β-galactosidase hydrolyses the RGP substrate in the microwell into a fluorescent product that provides the signal for measurement. A single-labelled target molecule results in sufficient fluorescent signal that can be detected and counted by the Simoa^TM optical system. The percentage of bead-containing wells in the array that have a positive signal is proportional to the amount of target or activity present in the sample.
To determine protein concentration, data can be interpolated from a calibration curve using rh LOXL2. For enzyme activity, samples are incubated for at least 30 minutes at room temperature with or without the pan-LOX inhibitor (100 μM BAPN). […]

Inhibition of LOXL2 activity (single oral dose 100 mg, 4 h): 80%
Inhibition of LOXL2 activity (single oral dose 100 mg, 24 h): approximately 20%
Inhibition of LOXL2 activity (single oral dose 200 mg, 4 h): complete inhibition
Inhibition of LOXL2 activity (single oral dose 200 mg, 24 h): 50%
Inhibition of LOXL2 activity (single oral dose 400 mg, 4 h): complete inhibition
Inhibition of LOXL2 activity (single oral dose 400 mg, 24 h): 70%
IC50 (phase 1 samples, n = 210, read-out: Calculated IC50 from correlation of concentration versus % inhibition): 24 nM
SMILES: CC(C)c1c(Cc2ccc(S(C)(=O)=O)nc2)c2ncccc2n1C/C(F)=C/CN [PXS‐5338]
